From patent US20210236466A1, “COMPOUNDS AND COMPOSITIONS FOR TREATING CONDITIONS ASSOCIATED WITH STING ACTIVITY” (IFM Due, Inc., priority 2018, published 2021)

Target: T1, hSTING (Homo sapiens, UniProt Q86WV6, G230A/H232R/R293Q/R71H)
T1 construct: host or cells: THP1-Dual KO-IFNAR2 cells
Test: STING reporter assay: luciferase reporter activity in THP1-Dual KO-IFNAR2 cells stimulated with 2'3'cGAMP
Assay type: cell-based
Details: 15 μM 2'3'cGAMP, 24 h
Experimental: STING pathway activation by the compounds described herein is measured using THP1-Dual™ cells (KO-IFNAR2).
THP1-Dual™ KO-IFNAR2 Cells (obtained from invivogen) are maintained in RPMI, 10% FCS, 5 ml P/S, 2 mM L-glut, 10 mM Hepes, and 1 mM sodium pyruvate. Compounds are spotted in empty 384 well tissue culture plates (Greiner 781182) by Echo for a final concentration of 0.0017-100 μM. Cells are plated into the TC plates at 40 μL per well, 2×10E6 cells/mL. For activation with STING ligand, 2′3′cGAMP (MW 718.38, obtained from Invivogen), is prepared in Optimem media.
The following solutions are prepared for each 1×384 plate: • Solution A: 2 mL Optimem with one of the following stimuli: • 60 uL of 10 mM 2′3′cGAMP->150 μM stock • Solution B: 2 mL Optimem with 60 μL Lipofectamine 2000->Incubate 5 min at RT
2 mL of solution A and 2 ml Solution B is mixed and incubated for 20 min at room temperature (RT). 20 uL of transfection solution (A+B) is added on top of the plated cells, with a final 2′3′cGAMP concentration of 15 μM. The plates are then centrifuged immediately at 340 g for 1 minute, after which they are incubated at 37° C. 5% CO2, >98% humidity for 24 h. Luciferase reporter activity is then measured. EC50 values are calculated by using standard methods known in the art.
Luciferase reporter assay: 10 μL of supernatant from the assay is transferred to white 384-plate with flat bottom and squared wells, one pouch of QUANTI-Luc™ Plus is dissolved in 25 mL of water. 100 μL of QLC Stabilizer per 25 mL of QUANTI-Luc™ Plus solution is added. 50 μL of QUANTI-Luc™ Plus/QLC solution per well is then added. Luminescence is measured on a Platereader (e.g., Spectramax I3X (Molecular Devices GF3637001)).
Luciferase reporter activity is then measured. EC50 values are calculated by using standard methods known in the art.

T1 sequence (Q86WV6 whole entry R71H/G230A/H232R/R293Q): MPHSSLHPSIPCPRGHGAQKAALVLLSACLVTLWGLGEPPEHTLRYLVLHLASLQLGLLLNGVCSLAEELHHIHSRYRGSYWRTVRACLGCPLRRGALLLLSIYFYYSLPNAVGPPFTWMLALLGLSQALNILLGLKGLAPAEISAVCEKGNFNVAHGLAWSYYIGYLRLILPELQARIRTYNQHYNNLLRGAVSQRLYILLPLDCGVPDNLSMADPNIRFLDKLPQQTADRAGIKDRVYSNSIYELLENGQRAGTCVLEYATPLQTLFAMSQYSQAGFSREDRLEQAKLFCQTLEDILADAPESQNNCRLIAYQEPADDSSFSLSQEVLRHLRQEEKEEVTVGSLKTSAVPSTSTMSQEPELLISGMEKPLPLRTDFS

| SMILES | EC50 |
| --- | --- |
| CCCCC1CCC(NC(=O)Nc2c[nH]nc2-c2ccccc2)CC1 (stereo not drawn) [Compound 54] | 5 to 100 µM |
| CCCCc1cccc(NC(=O)Nc2c[nH]nc2-c2ccccc2)c1 [Compound 46] | 5 to 100 µM |
| O=C(Nc1c[nH]nc1-c1ccccc1)NC1CCC2(CCC2)CC1 [Compound 40] | 5 to 100 µM |
| CCCCc1ccc(NC(=O)Nc2c[nH]nc2C2CCCCC2)cc1 [Compound 44] | 5 to 100 µM |
| O=C(Nc1ccc(C(F)(F)F)cc1)Nc1cn[nH]c1 [Compound 57] | 5 to 100 µM |
| CCCCc1ccc(NC(=O)Nc2c[nH]nc2-c2ccccc2F)cc1 [Compound 45] | < 5 µM |
| O=C(Nc1ccc(C(F)(F)F)cc1)Nc1c[nH]nc1-c1ccccc1 [Compound 58] | 5 to 100 µM |
| O=C(Nc1ccc(C2CCCCC2)cn1)Nc1c[nH]nc1-c1ccccc1 [Compound 38] | 5 to 100 µM |
| CCCCc1ccc(NC(=O)Nc2c[nH]nc2-c2ccccc2)cc1 [Compound 59, l-(4-Butylphenyl)-3-(3-phenyl-1H-pyrazol-4-yl)urea] | < 5 µM |
| O=C(Nc1c[nH]nc1-c1ccccc1)NC1CCc2ccccc2C1 (stereo not drawn) [Compound 49] | 5 to 100 µM |
| O=C(Nc1ccc(C(F)(F)F)nc1)Nc1c[nH]nc1-c1ccccc1 [Compound 37] | 5 to 100 µM |
| O=C(Nc1ccc(C(F)(F)F)cn1)Nc1c[nH]nc1-c1ccccc1 [Compound 39] | < 5 µM |
| CCCCc1ccc(NC(=O)Nc2cn[nH]c2)cc1 [Compound 52] | 5 to 100 µM |
| O=C(Nc1c[nH]nc1-c1ccccc1)NC1CCCc2ccccc21 (stereo not drawn) [Compound 50] | 5 to 100 µM |
| O=C(Nc1c[nH]nc1-c1ccccc1)NC1CCC(c2ccccc2)CC1 (stereo not drawn) [Compound 55] | 5 to 100 µM |
| CC(C)(C)C1CCC(NC(=O)Nc2c[nH]nc2-c2ccccc2)CC1 (stereo not drawn) [Compound 48] | 5 to 100 µM |

The next lines start with the values.

| EC50 | SMILES |
| --- | --- |
| 5 to 100 µM | O=C(Nc1c[nH]nc1-c1ccccc1)NC1CCCC(c2ccccc2)C1 (stereo not drawn) [Compound 51, 3-(3-Phenyl-1H-pyrazol-4-yl)-1-(3-phenylcyclohexyl)urea] |
| 5 to 100 µM | CCCCc1ccc(NC(=O)N2CCCc3n[nH]cc32)cc1 [Compound 60] |
| < 5 µM | CCCCc1ccc(NC(=O)Nc2c[nH]nc2-c2nccs2)cc1 [Compound 43] |
| < 5 µM | CCCCc1ccc(NC(=O)Nc2c[nH]nc2-c2ccccn2)cc1 [Compound 47] |
| 5 to 100 µM | O=C(Nc1cccc(C(F)(F)F)c1)Nc1c[nH]nc1-c1ccccc1 [Compound 56] |
| < 5 µM | CCCCc1ccc(NC(=O)Nc2c[nH]nc2-c2ccsc2)cc1 [Compound 42] |
| < 5 µM | O=C(Nc1ccc(C2CCCCC2)nc1)Nc1c[nH]nc1-c1ccccc1 [Compound 36] |
| 5 to 100 µM | CCCCc1ccc(NC(=O)Nc2c[nH]nc2C)cc1 [Compound 41] |
